Measured values: patent publication US9695219B2, “Polypeptide having antibacterial activity and angiogenesis-inducing activity and wound-healing drug containing said polypeptide” (priority 2009, dated 2017)
≈ marks a conversion by molar mass, not a printed value. Read-outs that look alike come from different tables or passages of the source. Where no end group is shown, it is not given here.

Key:
[1] = tested on: Pseudomonas aeruginosa (clinical strain 9); assay: MIC measurement, broth microdilution; type: cell-based; details: Pseudomonas aeruginosa; 37° C. for 20 hours; tested twice, first/second value where not matched
[2] = tested on: Staphylococcus epidermidis; assay: MIC measurement, broth microdilution; type: cell-based; details: Staphylococcus epidermidis; 37° C. for 20 hours; tested twice, first/second value where not matched
Description: (§1) Further, with respect to not only the above-described strains but also various other strains, the “minimum inhibitory concentration (MIC)” was measured as follows. MIC is the lowest concentration of an agent that may inhibit the growth of a bacterium. MIC is used as a parameter for the efficacy of an antibacterial agent, for the strength of bacterial sensitivity, or the like. The bacteria can grow (proliferate) when the concentration is not higher than MIC, and cannot grow when the concentration is higher than MIC. Its measurement is carried out according to a method defined as a standard method by Japanese Society of Chemotherapy or CLINICAL AND LABORATORY […] (CLSI), but, in this Example, its measurement was carried out by a broth microdilution method in accordance with “M100-S17/M7-A7” (Performance Standards for Antimicrobial Susceptibility Testing; Seventeenth Informational Supplement, Vol. 27 No. 1) published by CLSI on January, 2007. That is, sensitivity test of agents was carried out using a microtiter plate or test tubes.
(§2) The bacteria were cultured in liquid media for 4 to 6 hours, and thereafter absorbances at A600 were measured. Bacterial suspensions were diluted with Mueller-Hinton broth (MHB) according to McFarland #0.5. Each strain was added so as to attain about 10^5 CFU/ml (final concentration). Each peptide was prepared to an optional concentration, and the solutions were serially diluted from the concentration. The polypeptide at each concentration stage was added to a microplate or test tubes, and the bacterial suspension was added thereto. Chloramphenicol, amphotericin B, ciprofloxacin, meropenem (MEPM), ciprofloxacin (CPFX), tobramycin (TOB) and oxacillin (OX) were used as positive controls. The plate was incubated at 37° C. for 20 hours, and the lowest concentration where bacterial growth was inhibited was regarded as the minimum inhibitory concentration.

[3] = tested on: Staphylococcus aureus ATCC29213; assay: Antibacterial activity, ATP assay (BacTiter-Glo); type: cell-based
Description: (§3) The antibacterial activity of the polypeptides was measured using an ATP assay method. Using BacTiter-Glo Microbial Cell Viability Assay kit available from PROMEGA, the antibacterial activity of the peptides was evaluated from the viability of bacteria. […] With respect to the strains, Staphylococcus aureus ATCC29213 (S. aureus ATCC29213) as Gram-positive bacteria, or, alternatively, Pseudomonas aeruginosa (P. aeruginosa ATCC27853) as Gram-negative bacteria, was used. The bacteria were cultured in media for 3 to 4 hours, and thereafter absorbances at A600 were measured. Bacterial suspensions were diluted with Mueller-Hinton broth (MHB) according to McFarland #0.5. […] A solution to which the peptides were not added was considered as a negative control, and a solution to which tobramycin (TOB) was added was considered as a positive control. The plate was incubated at 37° C. for 3 hours, and the amount of ATP in the culture media was measured. Relative values were calculated by comparison with the negative control, and these values were regarded as the viability. The antibacterial activity of each of SR-08 and SR-07 polypeptides was measured using an ATP assay method. That is, using BacTiter-Glo Microbial Cell Viability Assay kit available from PROMEGA, the antibacterial activity of the peptides was evaluated from the viability of bacteria. […] As controls, tobramycin (TOB), oxacillin (OX) and meropenem (MEPM) were used at the concentrations as respectively shown in Table 6 below. With respect to the strains, Escherichia coli: ATCC 25922 (Escherichia coli ATCC 25922), Pseudomonas aeruginosa: ATCC 27853 (Pseudomonas aeruginosa ATCC 27853), Staphylococcus aureus: ATCC29213 (Staphylococcus aureus ATCC29213), Klebsiella pneumoniae: JCM 1662 (Klebsiella pneumoniae JCM 1662), enterobacteria (1): […] JCM 1235 (Enterobacter aerogenes JCM 1235), were used. The bacteria were cultured in media for 3 to 4 hours, and thereafter absorbances at A600 were measured. Bacterial suspensions were diluted with Mueller-Hinton broth (MHB) according to McFarland #0.5. […] The plate was incubated at 37° C. for 3 hours, and the amount of ATP in the culture media was measured. Relative values were calculated by comparison with the negative control, and these values were regarded as the viability.

[4] = tested on: Pseudomonas aeruginosa ATCC 27853; assay: Antibacterial activity, ATP assay (BacTiter-Glo); type: cell-based
Description: as §3

[5] = tested on: Pseudomonas aeruginosa (clinical strain 6); assay: MIC measurement, broth microdilution; type: cell-based; details: Pseudomonas aeruginosa; 37° C. for 20 hours; tested twice, first/second value where not matched
[6] = tested on: Pseudomonas aeruginosa (clinical strain 8); assay: MIC measurement, broth microdilution; type: cell-based; details: Pseudomonas aeruginosa; 37° C. for 20 hours; tested twice, first/second value where not matched
[7] = tested on: Klebsiella pneumoniae JCM 1662; assay: Antibacterial activity, ATP assay (BacTiter-Glo); type: cell-based
Description: (§4) The antibacterial activity of each of SR-08 and SR-07 polypeptides was measured using an ATP assay method. That is, using BacTiter-Glo Microbial Cell Viability Assay kit available from PROMEGA, the antibacterial activity of the peptides was evaluated from the viability of bacteria. In other words, ATP amount in viable bacteria in cases where the concentration of the peptides was 10 μg/mL was measured using a microtiter plate or test tubes. As controls, tobramycin (TOB), oxacillin (OX) and meropenem (MEPM) were used at the concentrations as respectively shown in Table 6 below.
(§5) With respect to the strains, Escherichia coli: ATCC 25922 (Escherichia coli ATCC 25922), Pseudomonas aeruginosa: ATCC 27853 (Pseudomonas aeruginosa ATCC 27853), Staphylococcus aureus: ATCC29213 (Staphylococcus aureus ATCC29213), Klebsiella pneumoniae: JCM 1662 (Klebsiella pneumoniae JCM 1662), enterobacteria (1): JCM 1232 (Enterobacter cloacae JCM 1232), and enterobacteria (2): JCM 1235 (Enterobacter aerogenes JCM 1235), were used.
(§6) The bacteria were cultured in media for 3 to 4 hours, and thereafter absorbances at A600 were measured. Bacterial suspensions were diluted with Mueller-Hinton broth (MHB) according to McFarland #0.5. Each strain was added so as to attain about 0.5-1×10^5 CFU/mL (final concentration) in terms of Escherichia coli. Each peptide was prepared and added to a microplate or test tubes so as to attain a final concentration of 10 μg/mL, and the bacterial suspension was added thereto. The plate was incubated at 37° C. for 3 hours, and the amount of ATP in the culture media was measured. Relative values were calculated by comparison with the negative control, and these values were regarded as the viability.

[8] = tested on: Escherichia coli ATCC 25922; assay: Antibacterial activity, ATP assay (BacTiter-Glo); type: cell-based
Description: as §4, §5, §6

[9] = tested on: Enterobacter cloacae JCM 1232; assay: Antibacterial activity, ATP assay (BacTiter-Glo); type: cell-based
Description: as §4, §5, §6

MSSA (clinical strain 2) = assay: microbe, parasite or virus in culture; type: cell-based, Staphylococcus aureus; details: 37° C. for 20 hours, tested twice, first/second value where not matched
Description: as §1, §2

MSSA (clinical strain 1) = assay: microbe, parasite or virus in culture; type: cell-based, Staphylococcus aureus; details: Staphylococcus aureus, MSSA; 37° C. for 20 hours; tested twice, first/second value where not matched
Description: as §1, §2

MRSA (clinical strain 2) = assay: microbe, parasite or virus in culture; type: cell-based, Staphylococcus aureus; details: 37° C. for 20 hours, tested twice, first/second value where not matched
Description: as §1, §2

[10] = tested on: Pseudomonas aeruginosa (clinical strain 1); assay: microbe, parasite or virus in culture; type: cell-based; details: Pseudomonas aeruginosa; 37° C. for 20 hours; tested twice, first/second value where not matched
[11] = tested on: Pseudomonas aeruginosa (clinical strain 12); assay: MIC measurement, broth microdilution; type: cell-based; details: Pseudomonas aeruginosa; 37° C. for 20 hours; tested twice, first/second value where not matched
[12] = tested on: Enterobacter aerogenes JCM 1235; assay: Antibacterial activity, ATP assay (BacTiter-Glo); type: cell-based
Description: as §4, §5, §6

MRSA (clinical strain 1) = assay: microbe, parasite or virus in culture; type: cell-based; details: Staphylococcus aureus, 37° C. for 20 hours, tested twice, first/second value where not matched
Description: as §1, §2

[13] = tested on: human vascular endothelial cells and fibroblast cells; type: cell-based; details: polypeptide 10 μg/mL, Day 11 of culture
Description: Using AG30-5C as a positive control, the angiogenesis-inducing activity of SR-1 and SR-2 was measured. More concretely, using an angiogenesis kit (Angiogenesis Kit, KZ-1000, KURABO […] LTD.), the ability of the polypeptides to form lumina was evaluated. As a negative control, polypeptide-free group (Control) was used.
Each polypeptide was added to a special medium for angiogenesis (KURABO […] LTD., KZ-1500) such that the concentration thereof was 10 μg/mL. Cells were cultured at 37° C. under 5% CO2 in a 24-well plate using the special media to which the polypeptide was added. The medium was replaced with a medium containing the same polypeptide on Day 4, Day 7 and Day 9 of culture. On Day 11 from the beginning of the culture, the medium was removed and staining was performed using a kit for staining lumina (for CD31 antibody staining) according to the following procedure.
The primary antibody (mouse anti-human CD31 antibody) was 4000-fold diluted with a blocking solution (Dulbecco's phosphate buffered saline (PBS(−)) containing 1% BSA). To each well, 0.5 mL of this primary antibody solution was added, and the plate was incubated for 60 minutes at 37° C. After the completion of the incubation, each well was washed totally 3 times with 1 mL of the blocking solution.
Then, 0.5 mL of a secondary antibody solution (goat anti-mouse IgG/alkaline phosphatase conjugate) 500-fold diluted with the blocking solution was added to each well. The plate was incubated for 60 minutes at 37° C., and thereafter each well was washed 3 times with 1 mL of distilled water. During that period, 2 tablets of BCIP/NBT were dissolved into distilled water, and the obtained solution was filtered through a filter having a pore size of 0.2 μm to prepare a substrate solution. To each well, 0.5 mL of the prepared BCIP/NBT substrate solution was added, and the plate was incubated at 37° C. until the lumina turned to deep purple (typically for 5-10 minutes). After the completion of the incubation, each well was washed 3 times with 1 mL of distilled water. After washing, the washing solution was removed by aspiration, and the plate was left to stand and dry naturally. After drying, photographs of each well were taken under a microscope.
Each of the obtained images was quantified using an angiogenesis quantification software. Computer analysis was carried out on various parameters. And, on the basis of its scale, the lengths of formed lumina observed in each visual field were measured, and the effect of adding the polypeptides compared with Control was evaluated.

[14] = Table 5, peptides 10 μg/mL, 37° C. for 3 hours, ATP amount relative to negative control
[15] = Table 7, mean values, peptides 10 μg/mL, TOB 1.0, OX 1.0, MEPM 0.5 μg/mL, 37° C. 3 hours, relative to negative control
[16] = Table 7, mean values, peptides 10 μg/mL, TOB 4.0, OX 4.0, MEPM 0.5 μg/mL, 37° C. 3 hours, relative to negative control

Molecule	MIC [1]	MIC [2]	MIC [5]	MIC [6]	MIC (MSSA (clinical strain 1))	MIC [10]	MIC [11]	MIC (MRSA (clinical strain 1))	The Length of Lumina (Percentage when taking Control as 100) ([13]; Table 4)	The Length of Lumina (Percentage when taking Control as 100) ([13]; Table 3)	further results
C[C@@H](O)[C@H]1C(=O)N2C(C(=O)O)=C(S[C@@H]3CN[C@H](C(=O)N(C)C)C3)[C@H](C)[C@H]12 [MEPM, meropenem]	< 4 µg/mL	0.03 to 0.12 µg/mL (≈ 0.0782 to 0.313 µM)	8 µg/mL (≈ 20.9 µM)	< 4 µg/mL	< 4 µg/mL	< 4 µg/mL	< 4 µg/mL	< 4 µg/mL	–	–	viability at 0.5 µg/mL ([3]; Staphylococcus aureus, ATCC29213, 3 h, read-out: Viability, Staphylococcus aureus): 89.8%; viability at 0.5 µg/mL ([4]; Pseudomonas aeruginosa, ATCC27853, 3 h, read-out: Viability, Pseudomonas aeruginosa): 19.3%; viability at 0.5 µg/mL ([7]; Klebsiella pneumoniae, JCM1662, 3 h, read-out: Viability, Klebsiella pneumoniae): 9.2%; viability at 0.5 µg/mL ([8]; Escherichia coli, ATCC25922, 3 h, read-out: Viability, Escherichia coli): 12.4%; viability at 0.5 µg/mL ([9]; Enterobacter cloacae, JCM1232, 3 h, read-out: Viability, Enterobacteria (1)): 3.8%; MIC, MSSA (clinical strain 2) (MSSA (clinical strain 2)): 4/8; MIC, MRSA (clinical strain 2) (MRSA (clinical strain 2)): 8/16; viability at 0.5 µg/mL ([12]; Klebsiella aerogenes, JCM1235, 3 h, read-out: Viability, Enterobacteria (2)): 1.7%
NC[C@H]1O[C@H](O[C@H]2[C@H](O)[C@@H](O[C@H]3O[C@H](CO)[C@@H](O)[C@H](N)[C@H]3O)[C@H](N)C[C@@H]2N)[C@H](N)C[C@@H]1O [TOB, tobramycin]	< 4 µg/mL	0.12 to 1 µg/mL (≈ 0.257 to 2.14 µM)	< 4 µg/mL	< 4 µg/mL	< 4 µg/mL	> 16 µg/mL	< 4 µg/mL	> 16 µg/mL	–	–	Viability (%) Staphylococcus aureus [3, 14]: 3.5%; Viability, Staphylococcus aureus ([3]; Table 7, mean values, peptides 10 μg/mL, TOB 1.0, OX 0.125, MEPM 0.5 μg/mL, 37° C. 3 hours, relative to negative control): 3.4; Viability (%) Pseudomonas aeruginosa [4, 14]: 1.8%; Viability, Pseudomonas aeruginosa [4, 15]: 1.5; Viability, Klebsiella pneumoniae [7, 16]: 4.6; Viability, Escherichia coli [8, 15]: 4.1; Viability, Enterobacteria (1) [9, 16]: 2.9; MIC (MSSA (clinical strain 2); Staphylococcus aureus, MSSA): < 4 µg/mL; MIC (MRSA (clinical strain 2); Staphylococcus aureus, MRSA): > 16 µg/mL; Viability, Enterobacteria (2) [12, 16]: 0.7
ARLDVASEFRKKWNKWALSR-amide (ARLDVASEFRKKWNKWALSR-NH2; listed as Homo sapiens) [PAMP]	–	–	–	–	–	–	–	–	124.6%	–	–
ELRFLHRLKRRLRKRLKRKLR-NH2 [SR-2]	–	–	–	–	–	–	–	–	–	124.6%	–
MLKLIFLHRLKRMRKRLKRK [SR-1]	–	–	–	–	–	–	–	–	–	124.3%	–
MLKLIFLHRLKRMRKRLKRKLRFWHRKRYK [AG30-5C]	–	–	–	–	–	–	–	–	165.7%	119.1%	–
